In ChEMBL document CHEMBL1629549, “Effects of minocycline and valproic acid coadministration on atazanavir plasma concentrations in human immunodeficiency virus-infected adults receiving atazanavir-ritonavir” (Antimicrob Agents Chemother, 2008):

How the values were obtained:
Assay type in all cases: ADME, organism-based
[1] = AUC (0 to 24 hrs) in HIV-infected patient at 100 mg, qd; parameters: dose 100 mg, time < 24 hr; settings: human, plasma
[2] = AUC (0 to 24 hrs) in HIV-infected patient at 100 mg, qd co-administered with 100 mg minocycline, bid for 15 days; parameters: time < 24 hr, dose 100 mg; settings: human, plasma
[3] = AUC (0 to 24 hrs) in HIV-infected patient at 100 mg, qd co-administered with 100 mg minocycline and 250 mg valporic acid, bid for 15 days; parameters: dose 100 mg, time < 24 hr; settings: human, plasma
[4] = Cmax in HIV-infected patient at 100 mg, qd; parameters: dose 100 mg; settings: human, in vivo
[5] = Cmax in HIV-infected patient at 100 mg, qd co-administered with 100 mg minocycline, bid for 15 days; parameters: dose 100 mg; settings: human, in vivo
[6] = Cmax in HIV-infected patient at 100 mg, qd co-administered with 100 mg minocycline and 250 mg valporic acid, bid for 15 days; parameters: dose 100 mg; settings: human, in vivo
[7] = Half life in HIV-infected patient at 100 mg, qd; settings: human, in vivo
[8] = Half life in HIV-infected patient at 100 mg, qd co-administered with 100 mg minocycline, bid for 15 days; settings: human, in vivo
[9] = Half life in HIV-infected patient at 100 mg, qd co-administered with 100 mg minocycline and 250 mg valporic acid, bid for 15 days; settings: human, in vivo
[10] = AUC (0 to 24 hrs) in HIV-infected patient at 300 mg, qd; parameters: time < 24 hr, dose 300 mg; settings: human, plasma
[11] = AUC (0 to 24 hrs) in HIV-infected patient at 300 mg, qd co-administered with 100 mg minocycline, bid for 15 days; parameters: dose 300 mg, time < 24 hr; settings: human, plasma
[12] = AUC (0 to 24 hrs) in HIV-infected patient at 300 mg, qd co-administered with 100 mg minocycline and 250 mg valporic acid, bid for 15 days; parameters: time < 24 hr, dose 300 mg; settings: human, plasma
[13] = Cmax in HIV-infected patient at 300 mg, qd; parameters: dose 300 mg; settings: human, in vivo
[14] = Cmax in HIV-infected patient at 300 mg, qd co-administered with 100 mg minocycline, bid for 15 days; parameters: dose 300 mg; settings: human, in vivo
[15] = Cmax in HIV-infected patient at 300 mg, qd co-administered with 100 mg minocycline and 250 mg valporic acid, bid for 15 days; parameters: dose 300 mg; settings: human, in vivo
[16] = Half life in HIV-infected patient at 300 mg, qd; settings: human, in vivo
[17] = Half life in HIV-infected patient at 300 mg, qd co-administered with 100 mg minocycline, bid for 15 days; settings: human, in vivo
[18] = Half life in HIV-infected patient at 300 mg, qd co-administered with 100 mg minocycline and 250 mg valporic acid, bid for 15 days; settings: human, in vivo

SMILES	AUC at 24 h [1]	AUC at 24 h [2]	AUC at 24 h [3]	Cmax [4]	Cmax [5]	Cmax [6]	half-life [7]	half-life [8]	half-life [9]	AUC at 24 h [10]	AUC at 24 h [11]	AUC at 24 h [12]	Cmax [13]	Cmax [14]	Cmax [15]	half-life [16]	half-life [17]	half-life [18]
CC(C)c1nc(CN(C)C(=O)N[C@H](C(=O)N[C@@H](Cc2ccccc2)C[C@H](O)[C@H](Cc2ccccc2)NC(=O)OCc2cncs2)C(C)C)cs1 [RITONAVIR]	9600 ng·h/mL	8190 ng·h/mL	7270 ng·h/mL	957 ng/mL	990 ng/mL	884 ng/mL	5.4 h	6.64 h	4.4 h	–	–	–	–	–	–	–	–	–
COC(=O)N[C@H](C(=O)N[C@@H](Cc1ccccc1)[C@@H](O)CN(Cc1ccc(-c2ccccn2)cc1)NC(=O)[C@@H](NC(=O)OC)C(C)(C)C)C(C)(C)C [ATAZANAVIR]	–	–	–	–	–	–	–	–	–	53500 ng·h/mL	33100 ng·h/mL	33500 ng·h/mL	5130 ng/mL	3400 ng/mL	2600 ng/mL	11 h	7.93 h	10.4 h
